Laboratory results from ChEMBL document CHEMBL1128384, “Cardioselective antiischemic ATP-sensitive potassium channel openers. 2. Structure-activity studies on benzopyranylcyanoguanidines: modification of the benzopyran ring” (J Med Chem, 1995).

Tests used:
Format in all cases: functional
[1] = species on record: Rattus norvegicus; test: Vasorelaxant potency was assessed by measurement of inhibition of methoxamine-contracted rat aorta
[2] = species on record: Rattus norvegicus; test: In vitro anti-ischemic potency was determined by measurement of concentration necessary for increase in time to contracture by 25% in the globally ischemic rat hearts
[3] = Ratio of anti-ischemic potency and vasorelaxant potency in rat.
[4] = species on record: Rattus norvegicus; test: Antiischemic potency was determined by increase in time to contracture at a concentration of 10 uM in the globally ischemic rat hearts

IC50 [1]	Structure (SMILES)	EC25 [2]	Ratio [3]	Increase [4]	Increase [2]
1.4 µM	CC1(C)Oc2ccc(C#N)cc2[C@@H](/N=C(\NC#N)Nc2ccccc2)[C@@H]1O (relative stereo)	11 µM	7.9	–	–
4.4 µM	CC(=O)O[C@H]1[C@H](NC(=O)Nc2ccccc2)c2cc(C#N)ccc2OC1(C)C	–	–	3%	–
1.1 µM	CC1(C)Oc2ccc(C(F)(F)F)cc2[C@@H](NC(=O)Nc2ccccc2)[C@@H]1O	2.7 µM	2.5	–	–
6.2 µM	CC1(C)Oc2ccc(C#N)cc2[C@@H](NC(=O)Nc2ccccc2)[C@H]1O	103 µM	16.5	–	–
8.8 µM	CC1(C)Oc2cc(-c3ncco3)c(-c3ncco3)cc2[C@@H](/N=C(\NC#N)Nc2ccccc2)[C@@H]1O (relative stereo)	–	–	–	6%
2.6 µM	CC(=O)O[C@H]1[C@H](/N=C(\NC#N)Nc2ccccc2)c2cc(C#N)ccc2OC1(C)C (relative stereo)	6 µM	2.3	–	–
6.9 µM	CC1(C)C=C(/N=C(\NC#N)Nc2ccccc2)c2cc(C#N)ccc2O1	–	–	0%	–
194 µM	N#CN/C(=N\[C@@H]1c2cc(C#N)ccc2OC[C@H]1O)Nc1ccccc1 (relative stereo)	–	–	0%	–
1.2 µM	CC(=O)c1ccc2c(c1)[C@@H](NC(=O)Nc1ccccc1)[C@H](O)C(C)(C)O2	4.5 µM	3.8	–	–
0.18 µM	CC1(C)c2ccc([N+](=O)[O-])cc2[C@@H](NC(=O)Nc2ccccc2)[C@@H]1O	6.5 µM	36.1	–	–
4 µM	CC(=O)c1ccc2c(c1)[C@@H](/N=C(\NC#N)Nc1ccccc1)[C@H](O)C(C)(C)O2 (relative stereo)	8.5 µM	2.1	–	–
2.6 µM	CC1(C)C[C@H](/N=C(\NC#N)Nc2ccccc2)c2cc(C#N)ccc21	22 µM	8.5	–	–
17 µM	CC1(C)C=C(NC(=O)Nc2ccccc2)c2cc(C#N)ccc2O1	–	–	7%	–

The remaining lines, values behind:

Structure (SMILES)	IC50 [1]	EC25 [2]	Ratio [3]	Increase [4]	Increase [2]
CC1(C)Oc2ccc(C#N)cc2[C@@H](NC(=O)Nc2ccccc2)[C@@H]1O	–	5.1 µM	–	–	–
N#Cc1ccc2c(c1)[C@@H](NC(=O)Nc1ccccc1)[C@H](O)CO2	–	–	–	6%	–
CC1(C)Oc2ccc(C#N)cc2[C@@H](/N=C(\NC#N)Nc2ccccc2)[C@H]1O (relative stereo)	–	–	–	9%	–
CC1(C)Oc2ccc(C#N)cc2[C@@H](N2CCCC2=O)[C@@H]1O [CROMAKALIM]	–	8.9 µM	278.1	–	–
CC1(C)Oc2cc(-c3ncco3)c(-c3ncco3)cc2[C@@H](NC(=O)Nc2ccccc2)[C@@H]1O	1.4 µM	13 µM	9.3	–	–
CC1(C)C[C@H](NC(=O)Nc2ccccc2)c2cc(C#N)ccc2O1	1.8 µM	5.3 µM	2.9	–	–
CC1(C)Oc2ccc(N)cc2[C@@H](/N=C(\NC#N)Nc2ccccc2)[C@@H]1O (relative stereo)	59.6 µM	–	–	–	0%
CC1(C)c2ccc([N+](=O)[O-])cc2[C@@H](/N=C(\NC#N)Nc2ccccc2)[C@@H]1O (relative stereo)	–	10.7 µM	18.8	–	–
CC1(C)Oc2ccc(C(F)(F)F)cc2[C@@H](/N=C(\NC#N)Nc2ccccc2)[C@@H]1O (relative stereo)	9.2 µM	10 µM	0.5	–	–
CC1(C)C[C@H](/N=C(\NC#N)Nc2ccccc2)c2cc(C#N)ccc2O1	14 µM	–	–	0%	–
CC1(C)C[C@H](NC(=O)Nc2ccccc2)c2cc(C#N)ccc21	1.3 µM	9.4 µM	7.2	–	–
CC1(C)Nc2ccc(C#N)cc2[C@@H](/N=C(\NC#N)Nc2ccccc2)[C@@H]1O (relative stereo)	–	–	–	0%	–
